The values that follow come from patent US11098040B2, “Compounds and methods of use” (Ferro Therapeutics, Inc., priority 2018, dated 2021).

One series concerns KP4. Nature of the series: Cell viability assay (CellTiter Glo), pancreatic ductal adenocarcinoma KP4. Format: cell-based, human. The settings on record: Homo sapiens, KP-4, 96 h, pancreatic cancer cell line KP4, 96 hours, CellTiter Glo; read-out: IC50 μM KP4. In short, it runs like this: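 Luminescent ATP readout (CellTiter Glo) after 96 h compound exposure, normalized to DMSO-treated cells as maximum. Compounds ran in duplicate, nine 3-fold steps from 30 μM down to 4.6 nM, final DMSO ≤0.25%; KP4 plated overnight at 1,000–10,000 cells/well. Outputs: IC50, relative IC50 or % top inhibition.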
By IC50 is commonly meant the concentration that gives 50% inhibition. On to `CN(C)C(=O)[C@H]1Cc2c([nH]c3ccccc23)[C@@H](c2ccc([Si](C)(C)C)cc2)N1C(=O)CCl` [Compound 67a], for which the IC50 is greater than 1 µM.
The same measure, in the same setting: as for `CN(C)C(=O)[C@H]1Cc2c([nH]c3ccccc23)[C@H](c2ccc(S(=O)(=O)C(C)(C)C)cc2)N1C(=O)CCl` [Compound 68], the figure is 0.01 to 0.1 µM; as for `CN(C)C(=O)[C@H]1Cc2c([nH]c3ccccc23)[C@H](c2ccc(S(=O)(=O)C3CCCC3)cc2)N1C(=O)CCl` [Compound 69], 0.01 to 0.1 µM; as for `CN(C)C(=O)[C@H]1Cc2c([nH]c3ccccc23)[C@H](c2ccc(S(=O)(=O)C3CC3)cc2)N1C(=O)CCl` [Compound 70], 0.1 to 0.5 µM.
As to `CC(=O)Nc1ccc([C@H]2c3[nH]c4ccccc4c3C[C@H](C(=O)N(C)C)N2C(=O)CCl)cc1` [Compound 71], the half-inhibitory concentration (IC50) was greater than 1 µM.
Consider `CC(=O)Nc1ccc([C@@H]2c3[nH]c4ccccc4c3C[C@H](C(=O)N(C)C)N2C(=O)CCl)cc1` [Compound 71a], for which the 50% inhibitory concentration (IC50) is greater than 1 µM.
The same measure, in the same setting: as for `COC(=O)c1ccc([C@H]2c3c(c4ccccc4n3C)C[C@H](C(=O)OC)N2C(=O)CCl)cc1` [Compound 72], the figure is 0.01 to 0.1 µM.

Test system in a further series: not listed separately
Nature of the series: Whole blood stability, mouse. Format: in vitro ADME. The settings on record: 0 min. An excerpt: (§1) The results of the assay on stability in blood and IC50 values for pancreatic cancer cell line KP4 are given below in Table 24.
As for `CN(C)C(=O)[C@H]1Cc2c([nH]c3ccccc23)[C@@H](c2ccc([Si](C)(C)C)cc2)N1C(=O)CCl` [Compound 67a], the “Whole Blood Stability % Remaining at 37° C. Mouse” value turned out to be 100.0%.
In the case of `CN(C)C(=O)[C@H]1Cc2c([nH]c3ccccc23)[C@H](c2ccc(S(=O)(=O)C(C)(C)C)cc2)N1C(=O)CCl` [Compound 68], the “Whole Blood Stability % Remaining at 37° C. Mouse” value came out at 100.0%.
The same measure, in the same setting: the same measure for `CN(C)C(=O)[C@H]1Cc2c([nH]c3ccccc23)[C@H](c2ccc(S(=O)(=O)C3CCCC3)cc2)N1C(=O)CCl` [Compound 69]: 100.0%; for `CN(C)C(=O)[C@H]1Cc2c([nH]c3ccccc23)[C@H](c2ccc(S(=O)(=O)C3CC3)cc2)N1C(=O)CCl` [Compound 70]: 100.0%.
Regarding `CC(=O)Nc1ccc([C@H]2c3[nH]c4ccccc4c3C[C@H](C(=O)N(C)C)N2C(=O)CCl)cc1` [Compound 71], the “Whole Blood Stability % Remaining at 37° C. Mouse” value turned out to be 100.0%.
For the molecule `CC(=O)Nc1ccc([C@@H]2c3[nH]c4ccccc4c3C[C@H](C(=O)N(C)C)N2C(=O)CCl)cc1` [Compound 71a], the “Whole Blood Stability % Remaining at 37° C. Mouse” value amounted to 100.0%.
For `COC(=O)c1ccc([C@H]2c3c(c4ccccc4n3C)C[C@H](C(=O)OC)N2C(=O)CCl)cc1` [Compound 72], the “Whole Blood Stability % Remaining at 37° C. Mouse” value came out at 100.0%.

Still in this series, the particulars now being: 30 min.
In the case of `CN(C)C(=O)[C@H]1Cc2c([nH]c3ccccc23)[C@@H](c2ccc([Si](C)(C)C)cc2)N1C(=O)CCl` [Compound 67a], the “Whole Blood Stability % Remaining at 37° C. Mouse” value is reported as 52.4%.
In the case of `CN(C)C(=O)[C@H]1Cc2c([nH]c3ccccc23)[C@H](c2ccc(S(=O)(=O)C(C)(C)C)cc2)N1C(=O)CCl` [Compound 68], the “Whole Blood Stability % Remaining at 37° C. Mouse” value was 65.0%.
The same measure, in the same setting: the same measure for `CN(C)C(=O)[C@H]1Cc2c([nH]c3ccccc23)[C@H](c2ccc(S(=O)(=O)C3CCCC3)cc2)N1C(=O)CCl` [Compound 69]: 63.8%; for `CN(C)C(=O)[C@H]1Cc2c([nH]c3ccccc23)[C@H](c2ccc(S(=O)(=O)C3CC3)cc2)N1C(=O)CCl` [Compound 70]: 63.3%.
On to `CC(=O)Nc1ccc([C@H]2c3[nH]c4ccccc4c3C[C@H](C(=O)N(C)C)N2C(=O)CCl)cc1` [Compound 71], for which the “Whole Blood Stability % Remaining at 37° C. Mouse” value was 90.4%.
On to `CC(=O)Nc1ccc([C@@H]2c3[nH]c4ccccc4c3C[C@H](C(=O)N(C)C)N2C(=O)CCl)cc1` [Compound 71a], for which the “Whole Blood Stability % Remaining at 37° C. Mouse” value is given as 76.5%.
Regarding `COC(=O)c1ccc([C@H]2c3c(c4ccccc4n3C)C[C@H](C(=O)OC)N2C(=O)CCl)cc1` [Compound 72], the “Whole Blood Stability % Remaining at 37° C. Mouse” value is 0.0%.

Staying with this series, now noted: 60 min.
`CN(C)C(=O)[C@H]1Cc2c([nH]c3ccccc23)[C@@H](c2ccc([Si](C)(C)C)cc2)N1C(=O)CCl` [Compound 67a]: the “Whole Blood Stability % Remaining at 37° C. Mouse” value is given as 18.2%.
`CN(C)C(=O)[C@H]1Cc2c([nH]c3ccccc23)[C@H](c2ccc(S(=O)(=O)C(C)(C)C)cc2)N1C(=O)CCl` [Compound 68]: the “Whole Blood Stability % Remaining at 37° C. Mouse” value came out at 36.9%.
Consider `CN(C)C(=O)[C@H]1Cc2c([nH]c3ccccc23)[C@H](c2ccc(S(=O)(=O)C3CCCC3)cc2)N1C(=O)CCl` [Compound 69], for which the “Whole Blood Stability % Remaining at 37° C. Mouse” value came to 29.3%.
Turning to `CN(C)C(=O)[C@H]1Cc2c([nH]c3ccccc23)[C@H](c2ccc(S(=O)(=O)C3CC3)cc2)N1C(=O)CCl` [Compound 70], the “Whole Blood Stability % Remaining at 37° C. Mouse” value was 36.6%.
As to `CC(=O)Nc1ccc([C@H]2c3[nH]c4ccccc4c3C[C@H](C(=O)N(C)C)N2C(=O)CCl)cc1` [Compound 71], the “Whole Blood Stability % Remaining at 37° C. Mouse” value is 75.5%.
Still for that read-out and setting: as for `CC(=O)Nc1ccc([C@@H]2c3[nH]c4ccccc4c3C[C@H](C(=O)N(C)C)N2C(=O)CCl)cc1` [Compound 71a], the figure is 43.8%.
Regarding `COC(=O)c1ccc([C@H]2c3c(c4ccccc4n3C)C[C@H](C(=O)OC)N2C(=O)CCl)cc1` [Compound 72], the “Whole Blood Stability % Remaining at 37° C. Mouse” value turned out to be 0.2%.

Test system in the next series: not listed separately
Nature of the series: Whole blood stability, human. The class given is in vitro ADME. The settings on record: 0 min.
Text: as §1
For the molecule `CN(C)C(=O)[C@H]1Cc2c([nH]c3ccccc23)[C@@H](c2ccc([Si](C)(C)C)cc2)N1C(=O)CCl` [Compound 67a], the “Whole Blood Stability % Remaining at 37° C. Human” value is 100.0%.
Take `CN(C)C(=O)[C@H]1Cc2c([nH]c3ccccc23)[C@H](c2ccc(S(=O)(=O)C(C)(C)C)cc2)N1C(=O)CCl` [Compound 68]: the “Whole Blood Stability % Remaining at 37° C. Human” value was determined as 100.0%.
As for `CN(C)C(=O)[C@H]1Cc2c([nH]c3ccccc23)[C@H](c2ccc(S(=O)(=O)C3CCCC3)cc2)N1C(=O)CCl` [Compound 69], the “Whole Blood Stability % Remaining at 37° C. Human” value is given as 100.0%.
On the same count and under the same terms, as for `CN(C)C(=O)[C@H]1Cc2c([nH]c3ccccc23)[C@H](c2ccc(S(=O)(=O)C3CC3)cc2)N1C(=O)CCl` [Compound 70], the figure is 100.0%; as for `CC(=O)Nc1ccc([C@H]2c3[nH]c4ccccc4c3C[C@H](C(=O)N(C)C)N2C(=O)CCl)cc1` [Compound 71], 100.0%.
`CC(=O)Nc1ccc([C@@H]2c3[nH]c4ccccc4c3C[C@H](C(=O)N(C)C)N2C(=O)CCl)cc1` [Compound 71a]: the “Whole Blood Stability % Remaining at 37° C. Human” value came out at 100.0%.
For the molecule `COC(=O)c1ccc([C@H]2c3c(c4ccccc4n3C)C[C@H](C(=O)OC)N2C(=O)CCl)cc1` [Compound 72], the “Whole Blood Stability % Remaining at 37° C. Human” value came out at 100.0%.

The same series, now with this note: 30 min.
In the case of `CN(C)C(=O)[C@H]1Cc2c([nH]c3ccccc23)[C@@H](c2ccc([Si](C)(C)C)cc2)N1C(=O)CCl` [Compound 67a], the “Whole Blood Stability % Remaining at 37° C. Human” value turned out to be 35.5%.
Take `CN(C)C(=O)[C@H]1Cc2c([nH]c3ccccc23)[C@H](c2ccc(S(=O)(=O)C(C)(C)C)cc2)N1C(=O)CCl` [Compound 68]: the “Whole Blood Stability % Remaining at 37° C. Human” value came to 36.8%.
Still for that read-out and setting: the same measure for `CN(C)C(=O)[C@H]1Cc2c([nH]c3ccccc23)[C@H](c2ccc(S(=O)(=O)C3CCCC3)cc2)N1C(=O)CCl` [Compound 69]: 48.4%; for `CN(C)C(=O)[C@H]1Cc2c([nH]c3ccccc23)[C@H](c2ccc(S(=O)(=O)C3CC3)cc2)N1C(=O)CCl` [Compound 70]: 46.0%; for `CC(=O)Nc1ccc([C@H]2c3[nH]c4ccccc4c3C[C@H](C(=O)N(C)C)N2C(=O)CCl)cc1` [Compound 71]: 80.4%.
Turning to `CC(=O)Nc1ccc([C@@H]2c3[nH]c4ccccc4c3C[C@H](C(=O)N(C)C)N2C(=O)CCl)cc1` [Compound 71a], the “Whole Blood Stability % Remaining at 37° C. Human” value was 54.9%.
As to `COC(=O)c1ccc([C@H]2c3c(c4ccccc4n3C)C[C@H](C(=O)OC)N2C(=O)CCl)cc1` [Compound 72], the “Whole Blood Stability % Remaining at 37° C. Human” value stood at 28.0%.

Still in this series, the particulars now being: 60 min.
In the case of `CN(C)C(=O)[C@H]1Cc2c([nH]c3ccccc23)[C@@H](c2ccc([Si](C)(C)C)cc2)N1C(=O)CCl` [Compound 67a], the “Whole Blood Stability % Remaining at 37° C. Human” value is 15.5%.
Same read-out and setting: as for `CN(C)C(=O)[C@H]1Cc2c([nH]c3ccccc23)[C@H](c2ccc(S(=O)(=O)C(C)(C)C)cc2)N1C(=O)CCl` [Compound 68], the figure is 20.6%; as for `CN(C)C(=O)[C@H]1Cc2c([nH]c3ccccc23)[C@H](c2ccc(S(=O)(=O)C3CCCC3)cc2)N1C(=O)CCl` [Compound 69], 18.3%.
In the case of `CN(C)C(=O)[C@H]1Cc2c([nH]c3ccccc23)[C@H](c2ccc(S(=O)(=O)C3CC3)cc2)N1C(=O)CCl` [Compound 70], the “Whole Blood Stability % Remaining at 37° C. Human” value turned out to be 23.8%.
Regarding `CC(=O)Nc1ccc([C@H]2c3[nH]c4ccccc4c3C[C@H](C(=O)N(C)C)N2C(=O)CCl)cc1` [Compound 71], the “Whole Blood Stability % Remaining at 37° C. Human” value is 59.3%.
Take `CC(=O)Nc1ccc([C@@H]2c3[nH]c4ccccc4c3C[C@H](C(=O)N(C)C)N2C(=O)CCl)cc1` [Compound 71a]: the “Whole Blood Stability % Remaining at 37° C. Human” value was determined as 25.7%.
With `COC(=O)c1ccc([C@H]2c3c(c4ccccc4n3C)C[C@H](C(=O)OC)N2C(=O)CCl)cc1` [Compound 72], the “Whole Blood Stability % Remaining at 37° C. Human” value is 7.0%.
